According to PMC1988858, “Nanosensor Detection of an Immunoregulatory Tryptophan Influx/Kynurenine Efflux Cycle” (PLoS Biology, 2007):

Key:
KB cells = experiment: Perfusion ratio imaging of LAT1-mediated tryptophan uptake and exchange in KB cells expressing FLIPW-CTYT; assay type: cell-based, human; conditions: for Export of intracellular tryptophan upon perfusion (FRET ratio decrease): 100 μM L-His, 200 μM DL-K, 200 μM DL-HK, 1,000 μM HAA
Description: (§1) Cells were cultured at 37 °C and 5% CO2.
(§2) Ratio imaging was performed on an inverted fluorescence microscope (DM IRE2, Leica; http://www.leica.com) with a Quant EM digital camera (Photometrics; http://www.photomet.com) and 20× oil immersion, 63× water immersion lenses (HC PL APO 20×/0.7 or HCX PL APO, Leica). Dual emission intensity ratios were simultaneously recorded using a DualView with an OI-5-EM filter set (eCFP 480/30; eYFP 535/40; Optical Insights; http://www.optical-insights.com) and Slidebook 4.2 (Intelligent Imaging Innovations; http://www.intelligent-imaging.com/). A Lambda DG4 (Sutter Instruments; http://www.sutter.com) provided excitation light. Images were acquired within the linear detection range of the camera and exposure times varied between 50 and 200 ms, depending on the expression level, with software binning between 2 and 3. Fluorescence intensities for eCFP and Venus were typically in the range of 6,000–8,000 and 12,000–16,000, respectively. Typical background values were around 1,000. Cells were perfused with Tyrode's buffer supplemented with ligands at flow rates of 1.0 ml/min in a vacuum chamber (Vacu-Cell VC-MPC-TW, C&L Instruments; http://www.fluorescence.com/) with a total volume of 0.1 ml. Buffers were exchanged using an eight-way automated ValveBank (AutoMate; http://www.autom8.com/). Inhibitors BCH and α-(methylamino)isobutyric acid (MeIAB) were used at 5 mM concentrations. For determination of the substrate specificity of tryptophan exchange, all 20 amino acids were tested at 100 μM concentrations. Analyses were repeated at least three times with similar results.

COS-7 cells [1] = experiment: Perfusion ratio imaging of tryptophan uptake and exchange in COS-7 cells expressing FLIPW-CTYT (LAT1-like exchanger); assay type: cell-based; conditions: for Effect on uptake rate of 100 μM L-tryptophan: COS-7, inhibitors at 5 mM; for Tryptophan export induced by extracellular tryptophan degradation product: tryptophan-preloaded COS-7 cells, DL-HK 200–1,000 μM; for Tryptophan export from the cytosol promoted by extracellular amino acid: COS-7 loaded with tryptophan, amino acid at 100 μM
Description: as §1
as §2, with “Dual emission intensity ratios were simultaneously recorded using a DualView with an OI-5-EM filter set (eCFP 480/30; eYFP 535/40; Optical Insights; http://www.optical-insights.com) and Slidebook 4.2 (Intelligent Imaging Innovations; http://www.intelligent-imaging.com/).” left out, “concentrations.” for “concentrations. Analyses were repeated at least three times with similar results.”

FLIPW-CTYT = molecular target: T1, FLIPW-CTYT (Escherichia coli, UniProt P0A881); experiment: In vitro FRET ligand titration of FLIPW-CTYT; assay type: binding, E. coli; conditions: for FLIPW-CTYT FRET response or interference with tryptophan binding: in vitro, unpublished data; for Kd: 20 mM MOPS pH 7.0
T1 construct: made in house; host or cells: E. coli BL21(DE3)gold
Description: (§3) The eCFP emission used for the ratio calculation was determined at 485 nm. Protein was diluted to give Venus readouts of 20,000–30,000 at a manual gain of between 70–75. By using the change in FRET ratio upon binding of ligand, affinity constants (K d) were determined by fitting the titration curves to a single-site binding isotherm: [drawing 1] with [L], ligand concentration; n, number of equal binding sites; R, ratio; R apo, ratio in the absence of ligand; and R sat, ratio at saturation with ligand. Three independent protein preparations were analyzed and each protein preparation was analyzed in triplicate.

FLIPW-TCTY = molecular target: T2, FLIPW-TCTY (Escherichia coli, UniProt P0A881); experiment: FRET ratio (528/485 nm, eCFP excitation 433 nm) titration of purified sensor with L-tryptophan in 20 mM MOPS, pH 7.0, fitted to a single-site binding isotherm.; conditions: n = 3
T2 construct: gene trpR
Description: as §3

LAT1 = molecular target: T3, LAT1 (Homo sapiens, UniProt Q01650); experiment: Velocity of intracellular FLIPW-CTYT FRET response by single-cell imaging versus external L-tryptophan in human KB cells perfused with Tyrode's buffer, histidine as counterexchange substrate, Michaelis-Menten fit.; assay type: cell-based; conditions: read-out: affinity of KB cells for combined tryptophan uptake and metabolism under perfusion conditions
T3 construct: gene SLC7A5; endogenous transporter of KB cells expressing cytosolic FLIPW-CTYT sensor
T3 sequence (Q01650 whole entry, the tested form may be a part): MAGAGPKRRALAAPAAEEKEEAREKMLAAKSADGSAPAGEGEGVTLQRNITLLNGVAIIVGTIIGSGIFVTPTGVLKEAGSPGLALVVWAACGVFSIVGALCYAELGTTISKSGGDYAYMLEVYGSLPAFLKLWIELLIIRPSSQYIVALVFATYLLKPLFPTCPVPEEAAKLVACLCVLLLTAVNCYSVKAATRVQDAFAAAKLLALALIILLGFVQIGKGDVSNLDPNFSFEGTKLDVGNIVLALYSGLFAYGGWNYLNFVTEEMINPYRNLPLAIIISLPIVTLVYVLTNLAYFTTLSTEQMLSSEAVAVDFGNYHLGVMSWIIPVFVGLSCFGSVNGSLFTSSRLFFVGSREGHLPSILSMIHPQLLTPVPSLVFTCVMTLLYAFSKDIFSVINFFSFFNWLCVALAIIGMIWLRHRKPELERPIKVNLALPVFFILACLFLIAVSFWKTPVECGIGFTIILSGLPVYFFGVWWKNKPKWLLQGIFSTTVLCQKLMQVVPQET
T3 sequence (P08195 103-630 partner): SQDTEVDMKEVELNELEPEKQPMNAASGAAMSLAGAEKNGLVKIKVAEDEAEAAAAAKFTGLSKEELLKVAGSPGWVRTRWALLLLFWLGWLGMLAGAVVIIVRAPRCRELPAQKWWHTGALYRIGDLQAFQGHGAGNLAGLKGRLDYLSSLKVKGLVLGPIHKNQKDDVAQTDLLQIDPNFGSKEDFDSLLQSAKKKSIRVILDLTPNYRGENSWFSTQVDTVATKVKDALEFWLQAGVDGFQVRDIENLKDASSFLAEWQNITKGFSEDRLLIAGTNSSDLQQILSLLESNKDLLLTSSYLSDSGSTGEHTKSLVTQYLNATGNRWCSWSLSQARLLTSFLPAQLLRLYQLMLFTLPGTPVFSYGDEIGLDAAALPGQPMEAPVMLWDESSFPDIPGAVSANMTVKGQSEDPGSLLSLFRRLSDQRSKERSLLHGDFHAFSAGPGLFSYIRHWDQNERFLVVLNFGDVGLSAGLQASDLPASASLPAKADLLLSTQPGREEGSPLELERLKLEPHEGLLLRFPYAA
Description: KB cells originate from a human oral squamous cell carcinoma and express only LAT1 for uptake of neutral amino acids as shown by reverse-transcriptase (RT)-PCR [37] and RNA interference (RNAi).
According to the FRET theory, an increase in Venus signal is accompanied by a decrease in eCFP signal. Ratio defined as fluorescence intensity quotient obtained with emission filters 535/40 nm over 480/30 nm. (B) Effect of 5 mM BCH inhibitor on the uptake rate of 100 μM L-tryptophan. Error bars indicate standard deviation. […] Error bars indicate standard deviation. […]
Ratio imaging was performed on an inverted fluorescence microscope (DM IRE2, Leica; http://www.leica.com) with a Quant EM digital camera (Photometrics; http://www.photomet.com) and 20× oil immersion, 63× water immersion lenses (HC PL APO 20×/0.7 or HCX PL APO, Leica). Dual emission intensity ratios were simultaneously recorded using a DualView with an OI-5-EM filter set (eCFP 480/30; eYFP 535/40; Optical Insights; http://www.optical-insights.com) and Slidebook 4.2 (Intelligent Imaging Innovations; http://www.intelligent-imaging.com/). […] Fluorescence intensities for eCFP and Venus were typically in the range of 6,000–8,000 and 12,000–16,000, respectively. […]

[2] = test system: LAT1-like amino acid exchanger; experiment: Velocity of intracellular FLIPW-CTYT FRET response by single-cell imaging versus external L-tryptophan in COS-7 cells perfused with Tyrode's buffer, histidine as counterexchange substrate, Michaelis-Menten fit.; assay type: cell-based; conditions: read-out: affinity of the cells for combined uptake and metabolism of tryptophan
Description: Upon perfusion with 100 μM L-tryptophan, the FRET ratio increased instantaneously, corresponding to rising levels of cytosolic tryptophan. […] This way, cells could be repeatedly loaded with tryptophan and unloaded using histidine (Figure 4A). […] Na^+ independence and BCH sensitivity are characteristic of the transport properties of LAT1- and LAT2-like amino acid counterexchangers. […] LAT2 is expressed in the proximal tubule of the kidney, so it might be expressed in COS-7 cells. In addition, LAT1 is expressed in various human tumor cell lines and, consequently, is likely to be present in COS-7 cells as well.
According to the FRET theory, an increase in Venus signal is accompanied by a decrease in eCFP signal. Ratio defined as fluorescence intensity quotient obtained with emission filters 535/40 nm over 480/30 nm. […] Error bars indicate standard deviation. […]
Ratio imaging was performed on an inverted fluorescence microscope (DM IRE2, Leica; http://www.leica.com) with a Quant EM digital camera (Photometrics; http://www.photomet.com) and 20× oil immersion, 63× water immersion lenses (HC PL APO 20×/0.7 or HCX PL APO, Leica). Dual emission intensity ratios were simultaneously recorded using a DualView with an OI-5-EM filter set (eCFP 480/30; eYFP 535/40; Optical Insights; http://www.optical-insights.com) and Slidebook 4.2 (Intelligent Imaging Innovations; http://www.intelligent-imaging.com/). […]

FLIPW-CTY = molecular target: T4, FLIPW-CTY (Escherichia coli, UniProt P0A881); experiment: In vitro FRET ligand titration of FLIPW-CTY; assay type: binding, E. coli; conditions: for Kd: 20 mM MOPS pH 7.0, read-out: Affinity of FLIPW-CTY for tryptophan substrates
T4 construct: made in house; host or cells: E. coli BL21(DE3)gold
Description: as §3

COS-7 cells [3] = conditions: read-out: Apparent affinity constant KM for combined transport and metabolism; COS-7, 96-well microplate, Tyrode's buffer
Description: COS-7 cells were grown in Dulbecco's modified Eagle's medium (high glucose; DMEM, Gibco; http://www.invitrogen.com) with 10% fetal calf serum and 50 units (U)/ml penicillin and 50 μg/ml streptomycin (Gibco). […] Cells were cultured at 37 °C and 5% CO2. For imaging, cells were cultured in 8-well LabTekII German tissue culture glass slides (Nalge Nunc International; http://www.nalgenunc.com) and transiently transfected at 50%–70% confluence using Lipofectamine 2000 Reagent (Invitrogen) in Opti-MEM I reduced serum medium (Gibco). After transfection, cells were cultured for 16 h in Opti-MEM I followed by 3 h in growth medium prior to imaging.
Adherent COS-7 cells in 96-well microplates were washed once with 100 μl Tyrode's buffer (119 mM NaCl, 2.5 mM KCl, 2 mM CaCl2, 2 mM MgCl2, 25 mM HEPES, 30 mM glucose, pH 7.3–7.4). The initial FRET ratio was measured by recording the eCFP and Venus emissions at 485 nm and 528 nm, respectively, after excitation of eCFP at 433 nm in a Safire monochromator microplate reader (Tecan). Standard deviation of the initial ratios was less than 10%. After addition of 100 μl tryptophan in Tyrode's buffer the FRET ratio was recorded with 2-min intervals for up to 2 h. Uptake rates were determined from linear parts in the initial FRET change and fitted with the nonlinear regression program Origin 6.1 (OriginLab; http://www.originlab.com).

human LAT1 = test system: human LAT1; set-up: method as in PMID 11557028; conditions: LAT1 expressed in oocytes, static conditions; cited from earlier work

NC1(C(=O)O)CC2CCC1C2 (centres unmarked) [BCH, 2-aminobicyclo-(2,2,1)-heptane-2-carboxylic acid]
Effect on LAT1-mediated uptake of 100 μM L-tryptophan (KB cells; 5 mM BCH): almost completely inhibited
Effect on uptake rate of 100 μM L-tryptophan (COS-7 cells [1]): decreased the uptake of tryptophan

Nc1c(O)cccc1C(=O)O [HAA, hydroxy-anthranilic acid]
Export of intracellular tryptophan upon perfusion (FRET ratio decrease) (KB cells): not
FLIPW-CTYT FRET response or interference with tryptophan binding (FLIPW-CTYT): did not result in a FLIPW-CTYT FRET response
Tryptophan export induced by extracellular tryptophan degradation product (COS-7 cells [1]): did not result in tryptophan export

Nc1c(O)cccc1C(=O)CC(N)C(=O)O (centres unmarked) [HK, 3-hydroxy-kynurenine]
Export of intracellular tryptophan upon perfusion (FRET ratio decrease) (KB cells): exported
FLIPW-CTYT FRET response or interference with tryptophan binding (FLIPW-CTYT): did not result in a FLIPW-CTYT FRET response
Tryptophan export induced by extracellular tryptophan degradation product (COS-7 cells [1]): tryptophan export

Nc1ccccc1C(=O)CC(N)C(=O)O (centres unmarked) [K, kynurenine]
Export of intracellular tryptophan upon perfusion (FRET ratio decrease) (KB cells): exported
FLIPW-CTYT FRET response or interference with tryptophan binding (FLIPW-CTYT): did not result in a FLIPW-CTYT FRET response
Tryptophan export induced by extracellular tryptophan degradation product (COS-7 cells [1]): tryptophan export

N[C@@H](Cc1c[nH]cn1)C(=O)O [L-histidine]
Export of intracellular tryptophan upon perfusion (FRET ratio decrease) (KB cells): decreased
Tryptophan export from the cytosol promoted by extracellular amino acid (COS-7 cells [1]): export of tryptophan from the cytosol

N[C@@H](Cc1c[nH]c2ccccc12)C(=O)O [L-tryptophan]
Kd (FLIPW-TCTY): 20 µM
Km (LAT1): 5.1 µM
Km [2]: 2.6 µM

CNC(C)(C)C(=O)O [N-(methylamino)isobutyric acid]
Effect on uptake rate of 100 μM L-tryptophan (COS-7 cells [1]): did not decrease uptake rates

N[C@H](Cc1c[nH]c2ccccc12)C(=O)O [d-tryptophan, D-tryptophan]
Kd (FLIPW-CTY): 3100 ± 300 µM
Concentration for decrease of FRET ratio relative to L-tryptophan (FLIPW-CTY; titration of FLIPW-CTY, higher concentrations than L-tryptophan): about 5 fold
Kd (FLIPW-CTYT): 1280 ± 100 µM

CC[C@H](C)[C@H](N)C(=O)O [isoleucine]
Tryptophan export from the cytosol promoted by extracellular amino acid (COS-7 cells [1]): able to promote tryptophan export

N[C@@H](Cc1c[nH]c2ccc(O)cc12)C(=O)O [l-5-hydroxy-tryptophan, 5-hydroxy-L-tryptophan]
Kd (FLIPW-CTY): 6000 ± 800 µM

Cc1ccc2[nH]cc(C[C@H](N)C(=O)O)c2c1 [l-5-methyl-tryptophan, 5-methyl-L-tryptophan]
Kd (FLIPW-CTY): 60 ± 10 µM
Kd (FLIPW-CTYT): 25 ± 2 µM

N[C@@H](Cc1c[nH]c2ccccc12)C(=O)O [l-tryptophan, L-tryptophan]
Affinity for combined tryptophan uptake and metabolism (KB cells; perfusion conditions): 5.1 ± 1.0 µM
Kd (FLIPW-CTY): 220 ± 20 µM
Kd (FLIPW-CTYT): 100 ± 14 µM
Km (COS-7 cells [3]): 0.88 ± 0.27 µM
Affinity of the cells for combined uptake and metabolism of tryptophan (COS-7 cells [1]; COS-7, perfusion): 2.6 ± 1.1 µM
Reported affinity of human LAT1 for tryptophan uptake (human LAT1): 21 µM

CC(C)C[C@H](N)C(=O)O [leucine]
Tryptophan export from the cytosol promoted by extracellular amino acid (COS-7 cells [1]): able to promote tryptophan export

CSCC[C@H](N)C(=O)O [methionine]
Tryptophan export from the cytosol promoted by extracellular amino acid (COS-7 cells [1]): able to promote tryptophan export

N[C@@H](Cc1ccccc1)C(=O)O [phenylalanine]
Tryptophan export from the cytosol promoted by extracellular amino acid (COS-7 cells [1]): able to promote tryptophan export

N[C@@H](Cc1ccc(O)cc1)C(=O)O [tyrosine]
Tryptophan export from the cytosol promoted by extracellular amino acid (COS-7 cells [1]): able to promote tryptophan export

CC(C)[C@H](N)C(=O)O [valine]
Tryptophan export from the cytosol promoted by extracellular amino acid (COS-7 cells [1]): able to promote tryptophan export
